{"source": "patent US7208572B2", "about": "“Leptin-related peptides” (Albany Medical College, priority 1998, dated 2007)", "key": {"[1]": {"assay": "Short-term (7-day) toxicity study in female C57BLK/6-m wild type mice", "conditions": "1 mg/day ip, 7 days", "description": "Methods: OB3, [D-Leu-4]-OB3, hOB3 or vehicle was administered intraperitoneally once daily (1 mg/day, 7 days) to groups (n=6 mice per group) of C57BLK/6-m wild type mice of the same age as their obese (ob/ob or db/db) counterparts. The effects of the peptides on body weight gain, food and water intake, glucose homeostasis, serum insulin levels, and ability to thermoregulate were examined."}, "[2]": {"assay": "Epitope mapping: body weight and food intake in female C57BL/6J ob/ob mice, 7 daily ip injections", "assay_type": "in vivo, mouse", "conditions": "for Cumulative food intake / Percent heavier (+) or lighter (−) than initial weight / Weight gain (+) or loss (−): 1 mg/day ip; for Cumulative food intake / Percent heavier (+) or lighter (−) than initial weight / Weight gain (+) or loss (−) / Reduction of food intake / Food intake vs vehicle: 7 days; for Reduction of food intake / Weight loss: 1 mg daily; for Weight loss: after 7 days", "method": "Animal procedures. Feeding and weighing schedules, as well as peptide administration protocols, are as described in EXAMPLE 8, supra.\nStatistical analysis. Changes in body weight and differences in food intake between peptide-treated and vehicle-injected control mice were analyzed by analysis of variance (ANOVA) and considered significant when P<0.05.\nFemale ob/ob mice (n=6 per group) were given a single ip injection of 0.2 ml of vehicle (PBS, pH 7.2) or leptin-related synthetic peptide amide in 0.2 ml PBS for 7 consecutive days. Daily changes in body weight compared to pretreatment weights in both vehicle-injected control and peptide-treated mice are shown in FIG. 4. […] There was no evidence of weight loss in response to peptide treatment."}, "[3]": {"assay": "12-day ip study of body weight gain and food intake in female C57BL/6J ob/ob mice", "assay_type": "in vivo, mouse", "conditions": "1 mg/day ip, 12 days", "method": "The graphs show changes in body weight (expressed as percent of initial weight) and food intake (expressed as mg/gm body weight/mouse) for mice given vehicle or synthetic leptin-related peptide OB3 (1 mg/day, ip, 12 days).\nMice were injected with leptin-related synthetic peptide (1 mg/g body weight, ip) or vehicle daily for 12 consecutive days. Each bar represents mean±SEM food consumption per mouse (n=6 mice per group) after 3, 6, 9 and 12 days of treatment.\nEach value represents mean±SEM change in body weight for a group of 6 mice.\nMice were injected with leptin-related synthetic peptide (1 mg/g body weight, ip) or vehicle for 12 consecutive days. Each bar and vertical line represents mean±food consumption per mouse (n=6 mice per group) after 3, 6, 9 and 12 days of treatment."}, "[4]": {"assay": "28-day ip study of body weight and food intake in female C57BL/6J ob/ob mice", "assay_type": "in vivo, mouse", "conditions": "1 mg per day ip, 28 days", "text": "In order to examine this possibility, six overlapping peptide amides, which corresponded to amino acid residues 106 to 167 of mouse leptin, were synthesized and their effects on body weight and food intake in female C57BL/6J ob/ob mice were subsequently assessed."}}, "note": "Marks after values point to notes of the source that are not given here. Square brackets hold non-standard residues; d marks the D form. Ends that are not written are not given here. Peptide text beside a SMILES is read from it."}
{"compound": "CC(C)C[C@@H](NC(=O)[C@H](CO)NC(=O)[C@H](CS)NC(=O)[C@@H](N)CO)C(=O)N1CCC[C@H]1C(=O)N[C@@H](CCC(N)=O)C(=O)N[C@H](C(N)=O)[C@@H](C)O", "note": "[[D-Leu-4]-OB3, Ser-Cys-Ser-[D-Leu]-Pro-Gln-Thr] (H-SCS[dL]PQT-NH2)", "values": [{"measurement": "Toxic effects", "setting": "[1]", "value": "no apparent toxic effects"}]}
{"compound": "V S A K Q R V T G L D F I P G (VSAKQRVTGLDFIPG; not fully specified) [LEP(51–65)]", "values": [{"measurement": "Cumulative food intake", "setting": "[2]", "value": "40.7 ± 0.6", "unit": "gm/mouse"}, {"measurement": "Percent heavier (+) or lighter (−) than initial weight", "setting": "[2]", "value": "+25.0%"}, {"measurement": "Weight gain (+) or loss (−)", "setting": "[2]", "value": "+6.4 g"}, {"measurement": "Body weight gain and food intake vs vehicle", "setting": "[3]", "value": "not significantly (i.e., P>0.05) different"}]}
{"compound": "SCSLPQT-NH2 [OB3, Ser-Cys-Ser-Leu-Pro-Gln-Thr]", "values": [{"measurement": "Toxic effects", "setting": "[1]", "value": "no apparent toxic effects"}]}
{"compound": "T K T L I K T I V T R I N D I (TKTLIKTIVTRINDI) [LEP(31–45)]", "values": [{"measurement": "Cumulative food intake", "setting": "[2]", "value": "39.5 ± 0.6", "unit": "gm/mouse"}, {"measurement": "Percent heavier (+) or lighter (−) than initial weight", "setting": "[2]", "value": "+26.6%"}, {"measurement": "Weight gain (+) or loss (−)", "setting": "[2]", "value": "+6.6 g"}, {"measurement": "Body weight gain and food intake vs vehicle", "setting": "[3]", "value": "not significantly (i.e., P>0.05) different"}]}
{"compound": "A V P I Q K V Q D D T K T L I (AVPIQKVQDDTKTLI) [LEP(21–35)]", "values": [{"measurement": "Cumulative food intake", "setting": "[2]", "value": "39.1 ± 1.0", "unit": "gm/mouse"}, {"measurement": "Percent heavier (+) or lighter (−) than initial weight", "setting": "[2]", "value": "+24.0%"}, {"measurement": "Weight gain (+) or loss (−)", "setting": "[2]", "value": "+6.2 g"}, {"measurement": "Body weight gain and food intake vs vehicle", "setting": "[3]", "value": "not significantly (i.e., P>0.05) different"}]}
{"compound": "R I N D I S H T Q S V S A K Q (RINDISHTQSVSAKQ) [LEP(41–55)]", "values": [{"measurement": "Cumulative food intake", "setting": "[2]", "value": "39.4 ± 1.5", "unit": "gm/mouse"}, {"measurement": "Percent heavier (+) or lighter (−) than initial weight", "setting": "[2]", "value": "+27.6%"}, {"measurement": "Weight gain (+) or loss (−)", "setting": "[2]", "value": "+5.9 g"}, {"measurement": "Body weight gain and food intake vs vehicle", "setting": "[3]", "value": "not significantly (i.e., P>0.05) different"}]}
{"compound": "Q K P E S L D G V L E A S L Y (QKPESLDGVLEASLY; not fully specified (N-terminus)) [LEP(126–140)]", "values": [{"measurement": "Reduction of food intake", "setting": "[2]", "value": 14.3, "unit": "%"}, {"measurement": "Weight loss", "setting": "[2]", "value": 10.2, "unit": "%"}, {"measurement": "Cumulative food intake", "setting": "[2]", "value": "34.7 ± 1.3^b gm/mouse"}, {"measurement": "Percent heavier (+) or lighter (−) than initial weight", "setting": "[2]", "value": "−10.2", "unit": "%"}, {"measurement": "Weight gain (+) or loss (−)", "setting": "[2]", "value": "−6.0^a g"}, {"measurement": "Food intake vs vehicle", "setting": "[2]", "value": "significantly (P=0.01) less than vehicle-injected control mice"}, {"measurement": "Weight gain and food intake vs vehicle", "setting": "[4]", "value": "significantly (P<0.01) restricted weight gain and food intake"}]}
{"compound": "SCHLPWA-NH2 [hOB3, S C H L P W A]", "values": [{"measurement": "Toxic effects", "setting": "[1]", "value": "no apparent toxic effects"}]}
{"compound": "D L L H L L A F S K S C S L P (DLLHLLAFSKSCSLP) [LEP(106–120)]", "values": [{"measurement": "Reduction of food intake", "setting": "[2]", "value": 14.8, "unit": "%"}, {"measurement": "Weight loss", "setting": "[2]", "value": 12.0, "unit": "%"}, {"measurement": "Cumulative food intake", "setting": "[2]", "value": "34.5 ± 1.1^b gm/mouse"}, {"measurement": "Percent heavier (+) or lighter (−) than initial weight", "setting": "[2]", "value": "−12.0", "unit": "%"}, {"measurement": "Weight gain (+) or loss (−)", "setting": "[2]", "value": "−6.1^a g"}, {"measurement": "Food intake vs vehicle", "setting": "[2]", "value": "significantly (P=0.01) less than vehicle-injected control mice"}, {"measurement": "Weight gain and food intake vs vehicle", "setting": "[4]", "value": "significantly (P<0.01) restricted weight gain and food intake"}]}
{"compound": "D I L Q Q L D V S P E C (DILQQLDVSPEC; not fully specified (N-terminus)) [LEP(156–167)]", "values": [{"measurement": "Cumulative food intake", "setting": "[2]", "value": "40.3 ± 0.6", "unit": "gm/mouse"}, {"measurement": "Percent heavier (+) or lighter (−) than initial weight", "setting": "[2]", "value": "+22.6%"}, {"measurement": "Weight gain (+) or loss (−)", "setting": "[2]", "value": "+5.7 g"}, {"measurement": "Weight gain and food intake vs vehicle", "setting": "[4]", "value": "continued to consume food and gain weight at a rate comparable to vehicle-injected control mice"}]}
{"compound": "E A S L Y S T E V V A L S R L (EASLYSTEVVALSRL; not fully specified (N-terminus)) [LEP(136–150)]", "values": [{"measurement": "Cumulative food intake", "setting": "[2]", "value": "38.7 ± 1.6", "unit": "gm/mouse"}, {"measurement": "Percent heavier (+) or lighter (−) than initial weight", "setting": "[2]", "value": "+25.6%"}, {"measurement": "Weight gain (+) or loss (−)", "setting": "[2]", "value": "+5.4 g"}, {"measurement": "Weight gain and food intake vs vehicle", "setting": "[4]", "value": "continued to consume food and gain weight at a rate comparable to vehicle-injected control mice"}]}
